# Active and inactive are the calls of the source. The calls are words filed in the database; no cut-off is given here.
# Columns and labels:
# [1] = Antiproliferative activity against human MCF-10A cells assessed as inhibition of cell proliferation incubated for 24 hrs by MTT assay; assay type: toxicity, cell-based
# [2] = (§1) Selectivity ratio of IC50 for antiproliferative activity against human MCF-10A cells assessed as inhibition of cell proliferation incubated for 24 hrs by MTT assay to IC50 for antiproliferative activity against human BT-549 cells assessed as inhibition of cell proliferation incubated for 24 hrs by MTT assay; assay type: toxicity, cell-based; conditions: MCF-10A cells versus BT-549 cells, read-out: Ratio IC50
# [3] = as §1, with “MDA-MB-231” for “BT-549”; assay type: cell-based; conditions: MCF-10A cells versus MDA-MB-231 cells, read-out: Ratio IC50
# MDA-MB-231 [4] = experiment: Inhibition of tumor sphere formation in human MDA-MB-231 cells at 1 uM incubated for 24 hrs by microscopic analysis; assay type: functional, cell-based
# BT-549 [5] = experiment: Inhibition of cell migration in human BT-549 cells assessed as reduction in wound healing ability at 0 to 2 uM incubated for 48 hrs by Wound healing assay; assay type: functional, cell-based; conditions: dose 0-2 µM
# MDA-MB-231 [6] = experiment: Inhibition of cell migration in human MDA-MB-231 assessed as reduction in wound healing ability at 0 to 2 uM incubated for 48 hrs by Wound healing assay; assay type: functional, cell-based; conditions: dose 0-2 µM
# [7] = molecular target: Eukaryotic translation initiation factor 3 subunit D (Homo sapiens) (UniProt O15371); experiment: Induction of thermal stabilization of EIF3D in human BT-549 cells at 1 uM by CETSA analysis; assay type: cell-based
# Chain of Eukaryotic translation initiation factor 3 subunit D (Homo sapiens) (O15371 whole entry): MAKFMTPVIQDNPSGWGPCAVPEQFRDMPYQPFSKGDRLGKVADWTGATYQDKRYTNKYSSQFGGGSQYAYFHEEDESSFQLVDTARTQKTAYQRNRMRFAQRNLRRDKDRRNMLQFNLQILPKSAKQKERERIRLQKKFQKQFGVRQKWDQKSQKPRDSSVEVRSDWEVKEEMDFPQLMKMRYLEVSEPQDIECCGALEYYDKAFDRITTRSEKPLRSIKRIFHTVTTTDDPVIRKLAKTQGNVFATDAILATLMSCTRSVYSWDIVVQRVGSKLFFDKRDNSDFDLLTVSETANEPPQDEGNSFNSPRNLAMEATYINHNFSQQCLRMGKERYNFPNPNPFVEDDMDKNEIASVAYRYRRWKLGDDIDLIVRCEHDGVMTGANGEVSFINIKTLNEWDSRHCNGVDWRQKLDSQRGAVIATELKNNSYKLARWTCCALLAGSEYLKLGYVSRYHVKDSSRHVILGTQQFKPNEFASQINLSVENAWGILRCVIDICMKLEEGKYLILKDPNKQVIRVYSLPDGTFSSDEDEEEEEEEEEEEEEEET
# BT-549 [8] = experiment: Downregulation of LDHA expression in human BT-549 cells at 1 uM incubated for 24 hrs by DAPI staining based immunofluorescence analysis; assay type: functional, cell-based
# MDA-MB-231 [9] = experiment: Inhibition of glycolysis in human MDA-MB-231 cells assessed as decrease in PKM2 protein level at 0.5 to 2 uM incubated for 24 hrs by Western blot analysis; assay type: functional, cell-based; conditions: dose 0.5-2 µM
# MDA-MB-231 [10] = experiment: Induction of ER stress in human MDA-MB-231 cells assessed as appearance of large number of vacuoles at 1 uM incubated for 24 hrs by TEM analysis; assay type: functional, cell-based
# BT-549 [11] = experiment: Induction of ER stress in human BT-549 cells assessed as upregulation of BIP protein level at 1 uM incubated for 24 hrs by DAPI staining based immunofluorescence analysis; assay type: functional, cell-based
# MDA-MB-231 [12] = experiment: Induction of apoptosis in human MDA-MB-231 cells incubated for 24 hrs by Annexin V-PI staining based flow cytometric analysis; assay type: functional, cell-based; conditions: dose 0.5-2 µM
# BT-549 [13] = experiment: Induction of apoptosis in human BT-549 cells assessed as early apoptotic cells at 1 uM incubated for 24 hrs by Annexin V-PI staining based flow cytometric analysis (reference value: 0.78%); assay type: functional
# BT-549 [14] = experiment: Induction of apoptosis in human BT-549 cells assessed as necrotic cells at 1 uM incubated for 24 hrs by Annexin V-PI staining based flow cytometric analysis (reference value: 3.32%); assay type: functional
# BT-549 [15] = experiment: Induction of apoptosis in human BT-549 cells assessed as upregulation of Bax expression at 0.5 to 2 uM incubated for 24 hrs by Western blot analysis; assay type: functional, cell-based; conditions: dose 0.5-2 µM
# BT-549 [16] = experiment: Induction of apoptosis in human BT-549 cells assessed as upregulation of cleavage of caspase-8 expression at 0.5 to 2 uM incubated for 24 hrs by Western blot analysis; assay type: functional, cell-based; conditions: dose 0.5-2 µM
# MDA-MB-231 [17] = experiment: Induction of apoptosis in human MDA-MB-231 cells assessed as upregulation of cleavage of PARP level at 0.5 to 2 uM incubated for 24 hrs by Western blot analysis; assay type: functional, cell-based; conditions: dose 0.5-2 µM
# MDA-MB-231 [18] = experiment: Antitumor activity against human MDA-MB-231 cells xenografted in female BALB/c mouse model assessed as reduction in tumor weight administered subcutaneously and measured every day; assay type: functional, cell-based; conditions: dose 5-20 mg/kg, route sc
# BT-549 [19] = experiment: Antitumor activity against human BT-549 cells xenografted in female BALB/c mouse model assessed as reduction in tumor weight administered subcutaneously and measured every day; assay type: functional, cell-based; conditions: dose 5-20 mg/kg, route sc
# BT-549 [20] = experiment: Antitumor activity against human BT-549 cells xenografted in female BALB/c mouse model assessed as reduction of proliferation rate of tumor at 5 to 20 mg/kg administered subcutaneously and measured every day; assay type: functional, organism-based; conditions: dose 5-20 mg/kg, route sc
# [21] = Toxicity in female BALB/c mouse xenografted with human BT-549 cells assessed as effect on body weight at 5 to 20 mg/kg, sc and measured daily; assay type: organism-based; conditions: in vivo, dose 5-20 mg/kg
# [22] = Toxicity in female BALB/c mouse xenografted with human MDA-MB-231 cells assessed as effect on pathological changes in heart at 5 to 20 mg/kg, sc by H and E staining based analysis; assay type: organism-based; conditions: in vivo, dose 5-20 mg/kg
# BT-549 [23] = experiment: Antiproliferative activity against human BT-549 cells xenografted in female BALB/c mouse model assessed as inhibition of Ki-67 expression at 5 to 20 mg/kg administered subcutaneously by immunohistochemical staining based microscopic analysis; assay type: functional, organism-based; conditions: dose 5-20 mg/kg, route sc
# MDA-MB-231 [24] = experiment: Antiproliferative activity against human MDA-MB-231 cells xenografted in female BALB/c mouse model assessed as fold change in inhibition of PKM2 expression at 10 mg/kg administered subcutaneously incubated for 24 hrs by Western blot analysis (reference value: 1.00%); assay type: functional; conditions: route sc
# MDA-MB-231 [25] = experiment: Antiproliferative activity against human MDA-MB-231 cells xenografted in female BALB/c mouse model assessed as fold change in inhibition of PKM2 expression at 20 mg/kg administered subcutaneously incubated for 24 hrs by Western blot analysis (reference value: 1.00%); assay type: functional; conditions: route sc
# MDA-MB-231 [26] = experiment: Antiproliferative activity against human MDA-MB-231 cells xenografted in female BALB/c mouse model assessed as fold change in downregulation of MMP-2 protein level at 5 mg/kg administered subcutaneously incubated for 24 hrs by Western blot analysis (reference value: 1.00%); assay type: functional; conditions: route sc
# MDA-MB-231 [27] = experiment: Antiproliferative activity against human MDA-MB-231 cells xenografted in female BALB/c mouse model assessed as fold change in downregulation of MMP-2 protein level at 20 mg/kg administered subcutaneously incubated for 24 hrs by Western blot analysis (reference value: 1.00%); assay type: functional; conditions: route sc
# BT-549 [28] = experiment: Antiproliferative activity against human BT-549 cells xenografted in female BALB/c mouse model assessed as fold change in downregulation of MMP-2 protein level at 20 mg/kg administered subcutaneously incubated for 24 hrs by Western blot analysis (reference value: 1.00%); assay type: functional; conditions: route sc
# BT-549 [29] = experiment: Antiproliferative activity against human BT-549 cells xenografted in female BALB/c mouse model assessed as fold change in upregulation of BIP protein level at 10 mg/kg administered subcutaneously incubated for 24 hrs by Western blot analysis (reference value: 1.00%); assay type: functional; conditions: route sc
# BT-549 [30] = experiment: Antiproliferative activity against human BT-549 cells xenografted in female BALB/c mouse model assessed as fold change in upregulation of BIP protein level at 20 mg/kg administered subcutaneously incubated for 24 hrs by Western blot analysis (reference value: 1.00%); assay type: functional; conditions: route sc
# MDA-MB-231 [31] = experiment: Antiproliferative activity against human MDA-MB-231 cells xenografted in female BALB/c mouse model assessed as fold change in cleavage of caspase-3 level at 5 mg/kg administered subcutaneously incubated for 24 hrs by Western blot analysis (reference value: 1.00%); assay type: functional; conditions: route sc
# [32] = Toxicity in female BALB/c mouse assessed as change in kidney administered subcutaneously measured upto 16 days; assay type: tissue-based; conditions: in vivo, sc, 384 h, time < 16 day
smiles,measurement,setting,value
CC(C)=CCC/C(C)=C/[C@H]1OC(=O)CC12C[C@H](OC(=O)Cc1ccc(NC(=O)/C=C/c3ccccc3)cc1)C=CC2=O (some centres not stated),IC50 at 24 h,[1],57.1 µM
same,selectivity ratio at 24 h,[2],57.7
same,selectivity ratio at 24 h,[3],67.2
same,inhibition,MDA-MB-231 [4],Active
same,inhibition,BT-549 [5],Active
same,inhibition,MDA-MB-231 [6],Active
same,Activity,[7],Active
same,Activity,BT-549 [8],Active
same,inhibition,MDA-MB-231 [9],Active
same,Activity,MDA-MB-231 [10],Active
same,Activity,BT-549 [11],Active
same,Activity,MDA-MB-231 [12],Dose-Dependent Effect
same,Activity,BT-549 [13],3.62%
same,Activity,BT-549 [14],5.44%
same,Activity,BT-549 [15],Active
same,Activity,BT-549 [16],Active
same,Activity,MDA-MB-231 [17],Active
same,Activity,MDA-MB-231 [18],Dose-Dependent Effect
same,Activity,BT-549 [19],Dose-Dependent Effect
same,Activity,BT-549 [20],Active
same,Activity,[21],Non-Toxic
same,Activity,[22],Non-Toxic
same,Activity,BT-549 [23],Active
same,fold change (FC),MDA-MB-231 [24],0.62
same,fold change (FC),MDA-MB-231 [25],0.31
same,fold change (FC),MDA-MB-231 [26],0.44
same,fold change (FC),MDA-MB-231 [27],0.26
same,fold change (FC),BT-549 [28],0.17
same,fold change (FC),BT-549 [29],1.9
same,fold change (FC),BT-549 [30],2.37
same,fold change (FC),MDA-MB-231 [31],1.11
same,Activity,[32],Non-Toxic
